This assay deals with T1, Tyrosine-protein phosphatase non-receptor type 1 (Homo sapiens, UniProt P18031).
T1 sequence (P18031 whole entry): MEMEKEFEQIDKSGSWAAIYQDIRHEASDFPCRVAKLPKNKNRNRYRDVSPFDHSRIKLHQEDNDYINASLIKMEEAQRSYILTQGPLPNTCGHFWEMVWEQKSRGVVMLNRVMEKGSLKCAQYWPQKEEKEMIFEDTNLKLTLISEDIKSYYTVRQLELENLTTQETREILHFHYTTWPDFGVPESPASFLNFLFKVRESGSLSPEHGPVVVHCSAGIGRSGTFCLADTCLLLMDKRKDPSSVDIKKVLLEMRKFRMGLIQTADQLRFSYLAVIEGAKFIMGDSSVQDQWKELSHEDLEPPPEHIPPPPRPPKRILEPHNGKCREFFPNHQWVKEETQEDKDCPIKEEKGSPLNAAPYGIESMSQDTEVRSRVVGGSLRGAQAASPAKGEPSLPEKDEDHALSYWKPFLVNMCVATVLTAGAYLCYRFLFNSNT
Nature of the assay: Inhibition of human recombinant PTP1B.
Regarding `CC(=O)c1c(O)c(C)c(O)c2c1OC1=CC(O)=C(/C(C)=N/[C@@H](CCC(=O)O)C(=O)O)C(=O)[C@@]12C` [USIMINE B], the IC50 turned out to be 27.7 µM. The value for `CC(=O)C1=C(O)C=C2Oc3c(C(C)=O)c(O)c(C)c(O)c3[C@@]2(C)C1=O` [(+)-USNIC ACID] was 16.4 µM. The value for `CC(=O)c1c(O)c(C)c(O)c2c1OC1=CC(O)=C(/C(C)=N\[C@@H](CCC(=O)O)C(=O)O)C(=O)[C@@]12C` [USIMINE C] was 23.2 µM; that for `COC(=O)CC[C@H](/N=C(\C)C1=C(O)C=C2Oc3c(C(C)=O)c(O)c(C)c(O)c3[C@@]2(C)C1=O)C(=O)O` [USIMINE A] was 15 µM.

The values are drawn from ChEMBL document CHEMBL1149838, “Usimines A-C, bioactive usnic acid derivatives from the Antarctic lichen Stereocaulon alpinum” (J Nat Prod, 2008).
